Legend:
[1] = tested on: D1R; parameters: method as in Mansilla et al., 2017; settings: ref Mansilla et al., 2017; cited from earlier work
[2] = tested on: NCS-1/Ric8a complex; parameters: method as in Mansilla et al., 2017; settings: cell lysate; ref Mansilla et al., 2017; cited from earlier work
[3] = tested on: DA metabolism; test: DA levels and DA metabolic profile (HPLC) in brain areas of Fmr1 KO mice; format: in vivo, mouse; settings: FD44 IP for 4 weeks
Protocol: FD44 solution formulation in 5% NMP, 5% Solutol HS-15, 30% PEG-400, and 60% citric acid (10 mM) was administered in doses of 10 and 50 mg/kg dose intraperitoneally and orally, respectively. A single dose was administered to 8–12-month-old mice for PK and a daily intraperitoneal dose to 2-month-old mice for 4 weeks for further behavioral and biochemical studies. […] PK was performed in collaboration with Sai life Science Ltd. Blood samples were collected from retro-orbital plexus into ethylenediamine tetraacetic acid (EDTA) tubes from a set of three mice at each time point. Plasma was immediately harvested from the blood by centrifugation at 2,500 g for 10 min at 4°C. […] Concentrations of FD44 in mouse plasma and brain samples were determined by the fit-for-purpose liquid chromatography with tandem mass spectrometry (LC-MS/MS) method. PK parameters were calculated using the non-compartmental analysis tool of Phoenix WinNonlin® (Version 7.0). Areas under the concentration time curve (AUClast and AUCinf) were calculated using a linear trapezoidal rule. […]
Tissue samples were preserved at −80°C until analysis. […] DA and its metabolites were measured from supernatants by HPLC with an ESA Coulochem detector, according to Mena et al. ([1993]). […] Monoamine levels were identified by their retention time, and amounts were calculated against calibrated external standard solutions. […]

[4] = molecular target: T1, NCS-1/Ric8a complex (Homo sapiens, UniProt P62166); test: In situ proximity ligation assay (PLA) of NCS-1 binding to Ric8a in HEK293 cells; format: cell-based; settings: FD44 20 μM
T1 construct: expressed in transfected cells; host or cells: HEK293
Protocol: Human embryonic kidney HEK293 cells were grown in Dulbecco's modified Eagle's medium supplemented with 2 mM L-glutamine, 100 U/ml penicillin/streptomycin, MEM non-essential amino acid solution (1/100), and 5% (v/v), and heat-inactivated fetal bovine serum (all from Thermo). The human NCS-1 and Ric8a-V5 constructs were previously generated (Mansilla et al., [2017]). Plasmids were co-transfected onto HEK293 using Lipofectamin 2000 (Thermo) following the manufacturer's instructions. Approximately 20 μM of FD44 diluted in dimethyl sulfoxide (DMSO) or the same volume of DMSO was added to culture cells 24 h after transfection.
For the in situ proximity ligation assay (PLA), cells were grown in coverslips and, after transfection and treatment, fixed for 20 min with a fixation reagent, and later permeabilized with a permeabilization reagent, all from the Intracellular Fixation and Permeabilization buffer set (eBioscience, Thermo). […] Finally, interactions were detected with Duolink in Situ PLA Green Detection kit (Sigma) following the manufacturer's instructions. Cover slips were mounted with ProLong reagent (Thermo) containing Hoescht, and staining was analyzed with a standard fluorescence microscope.
To better quantify the interaction, PLA was performed followed by flow cytometry. […] Cells were analyzed on FACS Canto II (BD Bioscience) with BD FACS Diva software.

[5] = tested on: Fmr1 KO2 mice; test: Fear conditioning (associative learning) in Fmr1 KO2 mice; format: in vivo, mouse; settings: 10 mg/kg IP daily for 4 weeks
Protocol: (§1) FD44 solution formulation in 5% NMP, 5% Solutol HS-15, 30% PEG-400, and 60% citric acid (10 mM) was administered in doses of 10 and 50 mg/kg dose intraperitoneally and orally, respectively. A single dose was administered to 8–12-month-old mice for PK and a daily intraperitoneal dose to 2-month-old mice for 4 weeks for further behavioral and biochemical studies. […] PK was performed in collaboration with Sai life Science Ltd. Blood samples were collected from retro-orbital plexus into ethylenediamine tetraacetic acid (EDTA) tubes from a set of three mice at each time point. Plasma was immediately harvested from the blood by centrifugation at 2,500 g for 10 min at 4°C. Immediately after collection of blood, brain samples were collected and homogenized using ice-cold phosphate buffer saline. Concentrations of FD44 in mouse plasma and brain samples were determined by the fit-for-purpose liquid chromatography with tandem mass spectrometry (LC-MS/MS) method. PK parameters were calculated using the non-compartmental analysis tool of Phoenix WinNonlin® (Version 7.0). Areas under the concentration time curve (AUClast and AUCinf) were calculated using a linear trapezoidal rule.
Associative learning of an aversive sound followed by an electrical shock was used to analyze fear conditioning. […] Memory was tested 24 h after training, and freezing time was recorded for 5 min.

[6] = tested on: Fmr1 KO2 mice; test: Aggression test (latency between attacks) in Fmr1 KO2 mice; format: in vivo, mouse; settings: 10 mg/kg IP daily for 4 weeks
Protocol: (§2) FD44 solution formulation in 5% NMP, 5% Solutol HS-15, 30% PEG-400, and 60% citric acid (10 mM) was administered in doses of 10 and 50 mg/kg dose intraperitoneally and orally, respectively. A single dose was administered to 8–12-month-old mice for PK and a daily intraperitoneal dose to 2-month-old mice for 4 weeks for further behavioral and biochemical studies. […] PK was performed in collaboration with Sai life Science Ltd. Blood samples were collected from retro-orbital plexus into ethylenediamine tetraacetic acid (EDTA) tubes from a set of three mice at each time point. Plasma was immediately harvested from the blood by centrifugation at 2,500 g for 10 min at 4°C. […] Concentrations of FD44 in mouse plasma and brain samples were determined by the fit-for-purpose liquid chromatography with tandem mass spectrometry (LC-MS/MS) method. PK parameters were calculated using the non-compartmental analysis tool of Phoenix WinNonlin® (Version 7.0). Areas under the concentration time curve (AUClast and AUCinf) were calculated using a linear trapezoidal rule.
(§3) Stereotype was evaluated by self-grooming. For this, mice were placed individually in a cage, after a 5-min habituation period, the time spent to grooming any part of the body was recorded for 3 min. […] The latency between attacks was measured for 3 min.

[7] = tested on: Fmr1 KO, Fmr1 KO2, and WT mice; test: Tolerability on treatment of mice; format: in vivo; settings: 10 mg/kg IP / 50 mg/kg PO
Protocol: as §1

[8] = Pharmacokinetic profile, plasma and brain, single dose in BALB/c WT mice; format: in vivo; settings: mouse
Protocol: The pharmacokinetic (PK) assay was performed by Sai Life Sciences Ltd. in BALB/c WT mice aged 8–12-months.
as §1

[9] = tested on: Fmr1 KO2 mice; test: Self-grooming (stereotype) in Fmr1 KO2 mice; format: in vivo, mouse; settings: 10 mg/kg IP daily for 4 weeks
Protocol: as §2, §3

[10] = parameters: method as in Mansilla et al., 2017; settings: among compounds previously identified as NCS-1/Ric8a inhibitors; ref Mansilla et al., 2017; cited from earlier work
[11] = tested on: Fmr1 KO mice; test: Three-chamber social test in Fmr1 KO mice; format: in vivo, mouse; settings: 10 mg/kg IP for 4 weeks
Protocol: as §1
The three-chamber test assesses cognition in the form of interest in social novelty. Testing occurs in a three-chambered box with openings between the chambers. […] The time spent in each chamber is quantified for 6 min.

[12] = tested on: Fmr1 KO mice; test: Open field test (hyperactivity) in Fmr1 KO mice; format: in vivo, mouse; settings: 10 mg/kg IP for 4 weeks
Protocol: as §2
(§4) Tests were conducted at the end of the treatment, that is, 4th week, and mice were tested on one behavioral task a day. […] Activity was monitored by IR beam breaks and decoded using VersaDat software (AccuScan). […] The distance traveled for 30 min was measured in centimeter for all cases.

[13] = tested on: D2R; parameters: method as in Mansilla et al., 2017; settings: ref Mansilla et al., 2017; cited from earlier work
[14] = tested on: Fmr1 KO2 mice; test: Open field test (hyperactivity) in Fmr1 KO2 mice; format: in vivo, mouse; settings: 10 mg/kg IP daily for 4 weeks
Protocol: as §2, §4

[15] = tested on: D. melanogaster FMRP mutants; settings: Drosophila melanogaster FXS model (FMRP mutants or fmr1 RNAi strain), FD44 in the food; ref Mansilla et al., 2017; cited from earlier work
[16] = tested on: neuronal cultures; parameters: method as in Mansilla et al., 2017; settings: ref Mansilla et al., 2017; cited from earlier work

T1 sequence (P62166 2-190 limits assumed, one chain of several): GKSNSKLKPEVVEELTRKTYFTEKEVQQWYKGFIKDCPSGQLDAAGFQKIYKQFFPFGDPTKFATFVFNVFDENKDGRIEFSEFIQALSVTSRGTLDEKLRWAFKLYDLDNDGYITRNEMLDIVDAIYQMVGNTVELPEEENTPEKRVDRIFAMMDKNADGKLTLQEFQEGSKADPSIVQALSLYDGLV

O=C(CN1CCCCC1)NN1c2ccccc2Sc2ccccc21 [FD44]
interaction with dopamine receptor D1R [1]: does not interact | inhibitory effect in a binding assay in vitro (co-immunoprecipitation) [2]: almost total inhibitory effect | DA metabolism ratio (metabolites HVA + DOPAC/DA) increase in the limbic area [3]: reversed | intensity and number of green fluorescence spots representing the NCS-1/Ric8a binding (PLA, microscopy) ([4]; HEK293 co-transfected with NCS-1 and Ric8a-V5, 24 h): reduced | reduction in binding (PLA followed by flow cytometry, mean fluorescence intensity) ([4]; HEK293 co-transfected with human NCS-1 and Ric8a-V5, last 24 h, four independent experiments): 40% | associative learning, freezing response after fear conditioning [5]: completely rescued impaired associative learning | aggression, latency between attacks [6]: low level of aggressiveness similar to their WT counterparts | tolerability, clinical signs [7]: well tolerated | Cmax ([8]; IP, 10 mg/kg single dose, brain): 2560.16 ng/mL | Tmax ([8]; IP, 10 mg/kg single dose, brain, 10 mg/kg): 15 min | Brain-to-plasma ratio ([8]; IP, 10 mg/kg single dose): 2.48–7.65 | time up to which brain concentrations were quantifiable ([8]; IP, 10 mg/kg single dose): up to 480 min | time up to which plasma concentrations were quantifiable ([8]; IP, 10 mg/kg single dose): up to 480 min | Cmax ([8]; IP, 10 mg/kg single dose, plasma): 981.19 ng/mL | Tmax ([8]; IP, 10 mg/kg single dose, plasma, 10 mg/kg): 5 min | Cmax ([8]; PO, 50 mg/kg single dose, brain): 5164.38 ng/mL | Tmax ([8]; PO, 50 mg/kg single dose, brain, 50 mg/kg): 15 min | Brain-to-plasma ratio ([8]; PO, 50 mg/kg single dose): 2.90 to 6.81 | time up to which brain concentrations were quantifiable ([8]; PO, 50 mg/kg single dose): up to 480 min | time up to which plasma concentrations were quantifiable ([8]; PO, 50 mg/kg single dose): up to 480 min | Cmax ([8]; PO, 50 mg/kg single dose, plasma): 858.90 ng/mL | Tmax ([8]; PO, 50 mg/kg single dose, plasma, 50 mg/kg): 15 min | blood–brain barrier crossing ([8]; IP and PO PK study): perfectly crosses the blood–brain barrier | stereotype, self-grooming [9]: restored | solubility profile [10]: best solubility profile | social interest, time in chamber with unfamiliar vs familiar mouse (three-chamber test) [11]: able to restore the impaired social interest | hyperactivity, distance traveled in the open field [12]: normalizes | interaction with dopamine receptor D2R [13]: does not interact | hyperactivity, distance traveled in the open field [14]: complete recovery | associative learning [15]: restored | synapse number [15]: restored | toxicity in neuronal cultures [16]: low toxicity

From publication PMC9709425, “The inhibition of NCS-1 binding to Ric8a rescues fragile X syndrome mice model phenotypes” (Frontiers in Neuroscience, 2022)
